Test results published in patent US4127687A, “Prevention of fouling of marine structures such as boat hulls” (Rohm and Haas Company, priority 1976, dated 1978).
≈ marks a conversion by molar mass, not a printed value. Read-outs that look alike come from different tables or passages of the source.

Columns and labels:
weed = experiment: Membrane Diffusion Raft Trials, weed control; format: in vivo, grass-like algal growth common in sea water; details: membrane test, average 15 to 16 weeks of immersion
Text: (§1) 1). FIELD TESTS: - Membrane Diffusion Raft Trials
(§2) A specially constructed raft provides three types
(§3) a). Waterline Well illuminated, aerated
(§4) b). Flats Poorly illuminated deeper
(§5) A known quantity of the test compound is placed into a cylindrical plastic container whose open end is then covered with a membrane of known porosity; the complete unit is attached to the appropriate raft panel so that the poison can freely diffuse into the free water layer around it. Regular inspections, recording time and quantity of settlement, allow a life history of each membrane trial to be constructed. Each raft panel contains 35 compounds to be evaluated together with 4 standard poisons and 1 non-toxic membrane for control.
(§6) The behavior on the raft can thus be compared with that of the standard poisons and the non-toxic control. At normal loading a membrane over the standard poisons would be free from macro-fouling after six months immersion. Compounds showing selective effects against restricted groups of fouling organisms also show up by membrane testing.
(§7) After the completion of membrane tests the contents of all containers are checked visually for poison loss. An empty container indicates an unacceptably high solubility for long term effectiveness; where the poison loss is low the compound is tested in one of two ways depending on its performance against fouling.
(§8) In the membrane tests, the results of approximately 140 compounds evaluated appear in Table 1. The symbols "0" means no detactable effect, the symbol "+" indicates the compound is active against the given fouling organism, and the symbol "++" means that the compound appears to be effective over at least about a four month period for essentially preventing fouling activity by the given organism. In the Table, "weed" designates a grass-like algal growth common in sea water.
(§9) Membrane Test results are of an average 15 to 16 weeks of immersion,
(§10) ^a 0 = none, + = some, + + = effective.

barnacle = experiment: Membrane Diffusion Raft Trials, barnacle control; format: in vivo, barnacles; details: membrane test, average 15 to 16 weeks of immersion
Text: as §1, §2, §3, §4, §5, §6, §7, §8, §9, §10
^f The 1975 Spring settlement of barnacles was very meager and the […]

[1] = Amount of toxicant remaining in the test container after membrane diffusion raft tests; format: physicochemical; design: key: 0: empty or trace; +: some; + +: ample; details: after completion of membrane diffusion raft tests
Text: as §5, §7
^b Amount of toxicants remaining in the test container after the
completion of the membrane diffusion raft tests: 0 = empty or trace, + =

Enteromorpha spores = experiment: Laboratory toxicity test (Lab Bioassay) with Enteromorpha spores; format: in vivo; details: using Enteromorpha spores
Text: Standard laboratory toxicity tests use Enteromorpha spores (zoospores or gametes) but Ectocarpus spores and barnacle nauplii may also be used. During the spore tests additional information on the control of bacterial and diatom slimes becomes available since these organisms are unavoidably introduced with the spore inoculum.
More detailed laboratory toxicity tests on promising compounds determine LD50 values as percentage saturated solution.
^c Using Enteromorpha spores.

[2] = Water solubility by UV spectrophotometric method; format: physicochemical; details: water
Procedure: The water solubilities of several isothiazolones were determined by UV spectrophotometric measurements of saturated aqueous solution of each compound in comparison with measurement of solutions of carefully prepared known concentration as outlined in the following example.
DETERMINATION OF SOLUBILITY OF 5-CHLORO-2-(4-FLUOROPHENYL)-4-METHYL-3-ISOTHIAZOLONE OF EXAMPLE 115
A sample of 5-chloro-2-(4-fluorophenyl)-4-methyl-3-isothiazolone (0.0406 g., 1.67 × 10^-4 mole) was dissolved in 50 ml. of methanol. A 5 ml. aliquot of the solution was diluted to 1000 ml. with deionized water, providing a solution of 1.67 × 10^-5 moles/liter concentration. An ultraviolet spectrum of this solution was run using a 10 cm. cell. The absorbance (As) at the wave length of maximum absorption (279 nm.) was 1.208. The molar absorptivity, AM, was calculated from the relationship
where b and c are path length or cell thickness and concentration respectively. Thus, AM was [formula]
Another sample of the compound (0.3-0.5 g.) was stirred vigorously in 40 ml. of deionized water for approximately 72 hrs. to give a saturated solution. The mixture was filtered through very fine filter paper (Whatman No. 50) to remove all suspended solid. Small portions of the filtrate were diluted with water by various factors until an approximately mid-scale absorbance was obtained upon running an ultraviolet spectrum. Such an absorbance was obtained at a dilution of 10. The absorbance was 0.975 in a 10 cm. cell. Using the value for AM obtained earlier, in the equation

[3] = saturated solution, Table 1, read-out: Solubility by UV method

Row | Structure (SMILES) | Weed Control (weed) | Barnacle Control (barnacle) | Contents at the end of test (amount of toxicants remaining in the test container) [1] | Lab Bioassay LD50 (Enteromorpha spores) | solubility [2, 3] [µg/mL] | solubility [2] [µg/mL]
1 | CCCCC(CC)Cn1sc(Cl)cc1=O (stereo not shown) [Example 17] | + + | + + | 0 | .013 percentage saturated solution | 135 (≈ 545 µM) | 
2 | CCCCCCCCCCCCn1sc(Cl)cc1=O [Example 23] | + + | + | + | 0.02 percentage saturated solution | 0.7 to 1.5 (≈ 2.3 to 4.94 µM) | 
3 | O=c1cc(Cl)sn1Cc1ccc(Cl)cc1 [Example 32] | + + | + | + + | 0.018 percentage saturated solution | 70 (≈ 269 µM) | 
4 | O=c1cc(Cl)sn1-c1ccc(Cl)cc1 [Example 34] | + + | + + | + + | 0.025 percentage saturated solution | 41 (≈ 167 µM) | 
5 | COc1ccc(-n2sc(Cl)cc2=O)cc1 [Example 38] | + + | + | + + | 0.025 percentage saturated solution | 300 (≈ 1240 µM) | 
6 | O=c1cc(Cl)sn1-c1ccc(Oc2ccccc2)cc1 [Example 39] | 0 | + + | + + | 0.6 percentage saturated solution |  | 
7 | COc1cc(Cl)ccc1-n1sc(Cl)cc1=O [Example 41] | + + | + | + + | 0.03 percentage saturated solution | 55 (≈ 199 µM) | 
8 | COc1c(Cl)cccc1-n1sc(Cl)cc1=O [Example 42] | + + | + | + + | 0.03 percentage saturated solution | 45 (≈ 163 µM) | 
9 | CCCCCCn1scc(Br)c1=O [Example 47] | 0 | + + | + | > 1 percentage saturated solution |  | 
10 | CCCCCCCCCCn1scc(Br)c1=O [Example 49] | + + | 0 | + | 0.01 percentage saturated solution |  | 
11 | O=c1c(Br)csn1C1CCCCC1 [Example 51] | + + | + | + | 0.01 percentage saturated solution | 143 (≈ 545 µM) | 
12 | O=c1c(Br)csn1Cc1ccc(Cl)cc1 [Example 53] | + + | + | + + | 0.1 percentage saturated solution | 18 (≈ 59.1 µM) | 
13 | CCCCC(CC)Cn1sc(Cl)c(Cl)c1=O (stereo not shown) [Example 58] | + + | + + | + | 0.0024 percentage saturated solution | 30 (≈ 106 µM) | 
14 | CC(C)(C)CC(C)(C)n1sc(Cl)c(Cl)c1=O [Example 59] | + + | + | + + | 0.006 percentage saturated solution | 38 (≈ 135 µM) | 
15 | O=c1c(Cl)c(Cl)sn1C1CCCCC1 [Example 67] | + + | + + | + | 0.3 percentage saturated solution |  | 48 (≈ 190 µM)
16 | O=c1c(Cl)c(Cl)sn1CCc1ccccc1 [Example 69] | + + | 0 | + + | 0.01 percentage saturated solution | 22 (≈ 80.2 µM) | 
17 | O=c1c(Cl)c(Cl)sn1Cc1ccccc1 [Example 71] | + + | + + | + | 0.25 percentage saturated solution | 52 (≈ 200 µM) | 
18 | O=c1c(Cl)c(Cl)sn1Cc1ccc(Cl)cc1 [Example 72] | + + | + | + + | 0.015 percentage saturated solution | 11 (≈ 37.3 µM) | 
19 | O=c1c(Cl)c(Cl)sn1-c1ccccc1 [Example 74] | + + | + + | + + | 0.03 percentage saturated solution | 8 (≈ 32.5 µM) | 
20 | O=c1c(Cl)c(Cl)sn1-c1ccc(Cl)cc1 [Example 75] | + + | 0 | + + | 0.006 percentage saturated solution | 3 (≈ 10.7 µM) | 
21 | Cc1c(Cl)cccc1-n1sc(Cl)c(Cl)c1=O [Example 78] | + + | 0 | + | 0.08 percentage saturated solution | 3.7 (≈ 12.6 µM) | 
22 | Cc1c(Cl)sn(-c2ccc(I)cc2)c1=O [Example 117] | + | + + | + + | 0.2 percentage saturated solution |  | 
23 | Cc1ccccc1-n1sc(Cl)c(C)c1=O [Example 118] | + + | 0 | + | 0.15 percentage saturated solution |  | 
24 | Cc1cccc(-n2sc(Cl)c(C)c2=O)c1 [Example 119] | + + | 0 | + + | 0.1 percentage saturated solution |  | 
25 | Cc1ccc(-n2sc(Cl)c(C)c2=O)cc1C [Example 122] | + + | + + | + + | 0.01 percentage saturated solution |  | 
26 | Cc1c(Cl)sn(-c2ccc(O)cc2)c1=O [Example 125] | + + | 0 | + + | > 1 percentage saturated solution |  | 
27 | CCOC(=O)c1ccc(-n2sc(Cl)c(C)c2=O)cc1 [Example 126] | + | + + | + + | 0.13 percentage saturated solution |  | 
28 | Cc1c(Cl)sn(-c2ccccc2C(F)(F)F)c1=O [Example 128] | + + | 0 | + | 0.6 percentage saturated solution |  | 
